Data on three compounds can be found in patent US20230242540A1, “COMPOUNDS HAVING ANTICANCER ACTIVITY” (The Trustees of Princeton University, priority 2020, published 2023).

For one test, the system named is Panc1 cell line. Description: Cell growth inhibition by resazurin, Panc1. Type of test: cell-based. The following applies: Panc1, 4 days, with or without hypoxanthine and thymidine supplement, FIG. 1B. On the procedure: (§1) Cells of (a) HCT116 and (b) Panc1 cell lines were each seeded in 96-well plates at the density of 3000/well in 80 μL of DMEM media supplemented with 10 vol % dialyzed FBS. The next day, 10 μL of media with or without hypoxanthine (1 mM) and thymidine (160 μM) was added to each well. 10 μL of Compound 1 diluted in media as 10× stock of desired concentration was also added. Relative cell number is measured by resazurin right before and 4 days after the addition of Compound 1. Namely, resazurin dissolved in phosphate-buffered saline (PBS) was added to each well to a final concentration of 10 μg/mL followed by 1-hour incubation at 37° C. Fluorescence (excitation 550 nm, emission 590 nm) is then measured by a microplate reader. […] Inhibition of growth in both cancer cell lines was achieved via disruption of purine and thymine synthesis.
Background: Alamar Blue is a resazurin reagent that responds to reducing activity.

In the next test the test system is HCT116 cell line. Description: Cell growth inhibition by resazurin, HCT116. Type of test: cell-based. The following applies: HCT116, 4 days, with or without hypoxanthine and thymidine supplement, FIG. 1A. As to the method:
as §1

Test [1] relates to isogenic CHO cell line with low RFC expression. Description: Folate competition, IC50 in CHO cells with low RFC expression. The format is cell-based. Particulars: Cricetulus griseus, folic acid free RPMI, 10 vol. % dialyzed FBS, 25 nM 5-formyl THF. On the procedure: (§2) Compound 1 was tested relative to pemetrexed and methotrexate against two isogenic CHO cell lines with low and high RFC expression levels. […] Table II provides the IC50 values for Compound 1, Pemetrexed and Methotrexate.

Test [2] deals with KPC pancreatic ductal adenocarcinoma allograft. In words: KPC pancreatic ductal adenocarcinoma allograft. Type of test: in vivo, male C57BL/6 mice. Particulars: 5 mg/kg intraperitoneally once daily. As to the method: Tumor harvested from K-ras^LSL.G12D/+; Trp53^R172H/+; Pdx-1-Cre (KPC) mice was passaged at the flank of C57BL/6 subcutaneously. To initiate allografts, subcutaneous tumors were harvested and minced in DMEM media, mixed with equal volume of Matrigel basement membrane matrix (Corning 354234), and injected subcutaneously at the flank of male C57BL/6 mice. Tumors were measured twice per week. Once the average tumor volume reaches 100 mm^3, Compound 1 (5 mg/kg body weight, dissolved in 10% 2-hydroxypropyl-β-cyclodextrin) and vehicle (10% 2-hydroxypropyl-β-cyclodextrin, 10 mL/kg body weight) were injected intraperitoneally once daily, with continued tumor monitoring. At the end of experiment, mice were euthanized by cervical dislocation after being fasted for 6 hr. Tumors are collected into aluminum foil, clamped by a Wollenberg clamp pre-cooled in liquid N2, and kept cold in liquid N2.
To extract metabolites from tumor samples, tumors were first ground by a Cryomill (Retsch). About 10 mg of ground tissue is measured and extracted by extraction buffer (acetonitrile:methanol:H2O=2:2:1, then supplemented with 0.5 vol % formic acid) at the ratio of 370 μL buffer per 10 mg tissue. […] Metabolite levels were measured by Q Exactive Plus Hybrid Quadrupole-Orbitrap coupled with […] (HILIC) operating in the negative ionization mode.

Test [3] relates to isogenic CHO cell line with high RFC expression. Description: Folate competition, IC50 in CHO cells with high RFC expression. The format is cell-based. The following applies: Cricetulus griseus, folic acid free RPMI, 10 vol. % dialyzed FBS, 25 nM 5-formyl THF. On the procedure:
as §2

Test [4] relates to HCT116 colorectal carcinoma xenograft. In words: HCT116 colorectal carcinoma xenograft. Type of test: in vivo, female  mice. The following applies: 5 mg/kg intraperitoneally once daily.
Test [5] has as its system MC38 mouse colon adenocarcinoma allograft. Description: MC38 mouse colon adenocarcinoma allograft. Type of test: in vivo, female C57BL/6 mice. The following applies: 5 mg/kg intraperitoneally once daily, FIG. 5A. As to the method: To initiate allografts, 2×10^6 MC38 cells were injected subcutaneously at the flank of female C57BL/6 mice. Once the average tumor volume reaches 50 mm^3, IRS-17 (5 mg/kg body weight, dissolved in 10% 2-hydroxypropyl-β-cyclodextrin) and vehicle (10% 2-hydroxypropyl-β-cyclodextrin, 10 mL/kg body weight) are injected intraperitoneally once daily. After the final dose, mice were fasted for 12 hr. Then blood was collected by tail snip into a tube without anticoagulants. Serum was collected by taking the supernatant after centrifugation. Mice were then euthanized by cervical dislocation, and tumors are harvested and frozen in liquid N2. Tumor metabolites were extracted and measured as previously described in C. To extract serum metabolites, 2.5 μL of serum was added into 80 μL of methanol. Samples were centrifuged (16000 g for 10 min) at 4° C., and supernatant is collected.

The IC50 is the point on the concentration scale where inhibition reaches its midpoint.

With `C#Cc1ccc(Cn2ccc3c4c(N)nc(N)nc4ccc32)cc1` [Compound 1], the cell growth entry in the test with Panc1 cell line and in the test with HCT116 cell line was “inhibited cell growth” each time. Besides, the IC50 in test [1] is under 0.002 nM; in test [3], 0.06 nM. Besides, the “change in tumor volume over time” value in test [2] (FIG. 3A) and in test [4] (FIG. 4A) was “substantially inhibited tumor growth” each time. For the same compound, the tumor doubling time entry in test [2] (FIG. 3B) and in test [4] (FIG. 4B) was “protracted tumor doubling time” throughout. In addition, in test [5], the “tumor volume over the treatment period” value was “some reduction in tumor volume”.
In the case of `CN(Cc1cnc2nc(N)nc(N)c2n1)c1ccc(C(=O)N[C@@H](CCC(=O)O)C(=O)O)cc1` [Methotrexate], the results for the IC50 in test [1] and in test [3] were 4000 nM and 480 nM, respectively.
For `Nc1nc2[nH]cc(CCc3ccc(C(=O)N[C@@H](CCC(=O)O)C(=O)O)cc3)c2c(=O)[nH]1` [Pemetrexed], the IC50 was 800 nM in test [1] and 150 nM in test [3].
